Reference: patent US8580731B2, “Insulin-gold nanocluster, pharmaceutical composition for reducing blood glucose comprising the same, and method for detecting adipose cells in tissue by using the same” (priority 2012, dated 2013)

Tested on: insulin-degradation enzyme (IDE)
Experiment: Insulin-Au NC fluorescence in mouse brain homogenate (IDE degradation and inhibition)
Type: biochemical
Conditions: inhibitor 0.01 to 1 mM pre-incubated 30 min with brain homogenate
Procedure: In addition, ten-week-old C57BL/6J male mice were well-anesthetized by i.p. injection of pentobarbital (75 mg/kg), and then the brain was removed and homogenated in PBS. The homogenate was then centrifuged at 6,000×g for 20 min and the supernatant was collected for the preparation of further experiments.
0.01, 0.1, and 1 mM doses of thiorphan or racecadotril, which was known as inhibiting agents for insulin-degradation enzyme (IDE), were co-incubated with the brain homogenates for 30 min, and then 10 μg/ml insulin-Au NCs was added and incubated with brain homogenates for 1 hour at 37° C. The detection of the insulin-Au NCs was determined by 450 nm and 650 nm of the emission excitation wavelength, respectively.

SMILES: CC(=O)SCC(Cc1ccccc1)C(=O)NCC(=O)OCc1ccccc1 (centres unmarked) [racecadotril]
- recovery of 670 nm emission (IDE inhibition): signal recovery was increased

SMILES: O=C(O)CNC(=O)C(CS)Cc1ccccc1 (centres unmarked) [thiorphan]
- recovery of 670 nm emission (IDE inhibition): signal recovery was increased
